# Assay results: patent publication US20140275108A1, “NOVEL BENZENESULFONAMIDE COMPOUNDS, METHOD FOR SYNTHESIZING SAME, AND USE THEREOF IN MEDICINE AS WELL AS IN COSMETICS” (GALDERMA RESEARCH & DEVELOPMENT, priority 2013, published 2014)
# Like-named read-outs stand apart in the source and are kept apart here.
# How the values were obtained:
# MMP-3 = target: T1, MMP-3 (Homo sapiens, UniProt P08254); experiment: Selectivity assay, MMP-3; format: biochemical; settings: Table 3, Example 30
# T1 construct: purchased Calbiochem
# Text: The enzymes are purchased from Calbiochem.
# (§1) Several compounds were dose-response tested on TACE and MMP-1, MMP-3, and MMP-12 according to the same protocol as that described above.
# IL-6 = experiment: Mouse ear edema model, IL-6 secretion by ear skin cells; format: in vivo, Balb/c mouse; settings: ear tissue biopsy, topical Day 1 to Day 7; FIG. 2B
# Protocol: (§2) P. acnes stimulates the production of inflammatory cytokines, such as TNFα and interleukins. In this Example, the mouse ear edema model was used to investigate inflammation induced by P. acnes. This is a chronic inflammation model involving intense innate and adaptive immunity. The thickness of the ear is measured each day to determine the amount of swelling caused by P. acnes. The amount of TNFα and IL-6 secreted is determined.
# (§3) After one intradermal injection of live P. acnes on Day 0, each of the following preparations was topically applied once a day on the ear of a Balb/c mouse over the course of 7 days (from Day 1 to Day 7). […]
# (§4) Preparations 1-3 served as controls for comparison with preparations 4-7. […] The thickness of the ear was measured each day with a caliper from day 1 until day 8. The amount of TNFα and IL-6 secreted by the skin cells was determined using tissue biopsy samples from the mouse ear. TNF-α and Il-6 were measured using the mouse BD™ Cytometric Bead Array Flex (BD Bioscience, Dosage by FacsArray).
# MMP-1 = target: T2, MMP-1 (Homo sapiens, UniProt P03956); experiment: Selectivity assay, MMP-1; format: biochemical; settings: Table 3, Example 30
# T2 construct: purchased Calbiochem
# T2 sequence (P03956 100-469): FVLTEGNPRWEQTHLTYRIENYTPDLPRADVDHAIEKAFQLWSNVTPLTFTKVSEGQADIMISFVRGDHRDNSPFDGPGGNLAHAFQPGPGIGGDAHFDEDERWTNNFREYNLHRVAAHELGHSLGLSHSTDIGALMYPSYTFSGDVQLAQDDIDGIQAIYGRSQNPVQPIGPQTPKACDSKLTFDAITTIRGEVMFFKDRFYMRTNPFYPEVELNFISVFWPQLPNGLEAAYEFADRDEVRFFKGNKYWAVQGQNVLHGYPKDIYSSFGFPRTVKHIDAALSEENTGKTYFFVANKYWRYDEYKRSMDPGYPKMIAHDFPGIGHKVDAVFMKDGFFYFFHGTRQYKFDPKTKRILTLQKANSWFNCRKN
# [1] = test system: edema induced by P. acnes; experiment: Mouse ear edema model, cutaneous inflammation induced by P. acnes (ear thickness); format: in vivo, Balb/c mouse; settings: topical on mouse ear, Day 1 to Day 7, after intradermal live P. acnes; Compound D 0.1%, 0.3%, 0.6% once a day, 0.6% twice a day; CD0153F 0.01% once a day; FIG. 1
# Protocol: as §2, §3, §4
# TNFα = experiment: Mouse ear edema model, TNFα secretion by ear skin cells; format: in vivo, Balb/c mouse; settings: ear tissue biopsy, topical Day 1 to Day 7; FIG. 2A
# Protocol: as §2, §3, §4
# TACE enzyme = TACE enzyme (Homo sapiens, UniProt P78536); experiment: Enzymatic assay for TACE inhibition (fluorescent substrate); format: biochemical
# other MMPs = experiment: Inhibition of other MMPs (data not shown); format: biochemical
# Text: as §1
# MMP-12 = MMP-12 (Homo sapiens, UniProt P39900); experiment: Inhibition of MMPs, MMP-12; format: biochemical; settings: Table 3, Example 30
# Text: as §1
# [2] = Table 3, Example 30, read-out: TACE = ADAM 17 (IC50 nM)
# Chain of TACE enzyme (P78536 215-477): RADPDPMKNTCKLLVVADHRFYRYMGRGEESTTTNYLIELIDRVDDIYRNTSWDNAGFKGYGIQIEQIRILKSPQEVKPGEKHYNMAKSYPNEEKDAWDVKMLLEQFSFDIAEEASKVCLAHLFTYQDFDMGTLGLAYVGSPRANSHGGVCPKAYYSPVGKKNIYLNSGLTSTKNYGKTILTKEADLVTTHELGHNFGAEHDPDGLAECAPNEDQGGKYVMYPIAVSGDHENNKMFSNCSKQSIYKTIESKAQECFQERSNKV
# Chain of MMP-12 (P39900 106-470): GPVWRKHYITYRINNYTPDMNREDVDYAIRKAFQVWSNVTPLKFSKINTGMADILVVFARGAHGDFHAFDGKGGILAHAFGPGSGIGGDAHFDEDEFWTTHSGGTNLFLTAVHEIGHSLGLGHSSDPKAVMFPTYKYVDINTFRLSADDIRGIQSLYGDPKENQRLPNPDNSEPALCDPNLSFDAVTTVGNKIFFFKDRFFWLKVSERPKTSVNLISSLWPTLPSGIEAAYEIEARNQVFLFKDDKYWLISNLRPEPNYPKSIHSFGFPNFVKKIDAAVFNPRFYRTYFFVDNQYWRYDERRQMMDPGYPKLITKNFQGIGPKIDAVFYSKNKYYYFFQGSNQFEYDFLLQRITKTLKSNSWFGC
# T1 sequence (P08254 100-477): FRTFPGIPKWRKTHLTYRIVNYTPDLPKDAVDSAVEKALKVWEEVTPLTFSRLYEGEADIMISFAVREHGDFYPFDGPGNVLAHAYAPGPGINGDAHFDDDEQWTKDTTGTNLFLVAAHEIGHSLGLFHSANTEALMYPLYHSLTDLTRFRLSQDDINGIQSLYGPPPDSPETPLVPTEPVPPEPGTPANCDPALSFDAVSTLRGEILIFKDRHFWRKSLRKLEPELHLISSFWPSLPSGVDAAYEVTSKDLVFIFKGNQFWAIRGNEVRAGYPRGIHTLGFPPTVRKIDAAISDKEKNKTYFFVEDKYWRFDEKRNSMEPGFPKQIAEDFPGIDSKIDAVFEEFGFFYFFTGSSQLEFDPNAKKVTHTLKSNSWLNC
compound,measurement,setting,value
Cc1cc(COc2ccc(S(=O)(=O)NC[C@@H](C(=O)NO)N3CCC(S(=O)(=O)C(C)C)CC3)cc2)c2ccccc2n1 [Compound D],IC50,MMP-3,574 nM
same,secretion of IL-6 induced by P. acnes,IL-6,moderately reduced
same,IC50,MMP-1,969 nM
same,inhibition of edema (ear swelling) induced by P. acnes,[1],did not inhibit the edema
same,secretion of TNFα induced by P. acnes,TNFα,greatly reduced
same,IC50,TACE enzyme; [2],33 nM
"CCCCC(=O)O[C@]1(C(=O)CO)[C@@H](C)C[C@H]2[C@@H]3CCC4=CC(=O)C=C[C@]4(C)[C@@]3(F)[C@@H](O)C[C@@]21C [CD0153F, betamethasone valerate, reference compound]",inhibition of edema (ear swelling) induced by P. acnes,[1],inhibition of inflammation
same,secretion of TNFα induced by P. acnes,TNFα,inhibiting TNFα secretion
Cc1cc(COc2ccc(S(=O)(=O)NC[C@@H](C(=O)NO)N3CCC(Cc4ccccc4)CC3)cc2)c2ccccc2n1 [C],IC50,TACE enzyme; [2],62 nM
"CN(C[C@@H](C(=O)NO)N1CCN(S(C)(=O)=O)CC1)S(=O)(=O)c1ccc(OCc2ccccc2)cc1 [Example 4, (S)-3-[(4-Benzyloxybenzenesulfonyl)methylamino]-N-hydroxy-2-(4-methanesulfonylpiperazin-1-yl)propionamide]",% TACE inhibition at 10 μM,TACE enzyme,95%
same,IC50,"TACE enzyme; Table 1, read-out: IC50 - TACE",497 nM
"CC#CCOc1ccc(S(=O)(=O)N(C)CC(C(=O)NO)N2CCN(S(C)(=O)=O)CC2)cc1 (centres unmarked) [Example 1, 3-[(4-but-2-ynyloxybenzenesulfonyl)methylamino]-N-hydroxy-2-(4-methanesulfonylpiperazin-1-yl)propionamide]",% TACE inhibition at 10 μM,TACE enzyme,100%
Cc1cc(COc2ccc(S(=O)(=O)NC[C@@H](C(=O)NO)N3CCCCC3)cc2)c2ccccc2n1 [Compound A],effect on other MMPs,other MMPs,no effect
same,IC50,MMP-12,977 nM
Cc1cc(COc2ccc(S(=O)(=O)NC[C@@H](C(=O)NO)N3CCOCC3)cc2)c2ccccc2n1 [B],effect on other MMPs,other MMPs,no effect
same,IC50,TACE enzyme; [2],51 nM
same,IC50,MMP-12,226 nM
